# Experimental data as given in article PMC9848300, “Discovery of novel enasidenib analogues targeting inhibition of mutant isocitrate dehydrogenase 2 as antileukaemic agents” (Journal of Enzyme Inhibition and Medicinal Chemistry, 2023).
# Several values for one entry are separate records, joined by “and”; a condition that tells them apart may be missing. Equal entries are not always repeated.
# Experiments:
# A498 = test: NCI 60 antitumor screening (single dose / five doses); format: cell-based; details: Homo sapiens; for inhibition at 10 µM: A498 (renal cancer), single dose 10 μM, read-out: Growth inhibition percentage (GI %)
# [1] = system: 60 human subpanel cancer cell lines; test: NCI 60 antitumor screening, mean over the panel (single dose); format: cell-based; details: mean over 60 cancer cell lines, single dose 10 μM
# In short: (§1)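 NCI-60 protocol: single 10 μM dose against each cell line, run in triplicate. Percent growth (G%) of treated cells measured and growth inhibition reported as GI% = 100 − G%; panel mean also given.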
# SNB-75 = test: NCI 60 antitumor screening (single dose / five doses); format: cell-based; details: Homo sapiens; for inhibition at 10 µM: SNB-75 (CNS cancer), single dose 10 μM, read-out: Growth inhibition percentage (GI %)
# SW-620 = test: as above; format: cell-based, human; details: Homo sapiens; for inhibition at 10 µM: SW-620 (colon cancer), single dose 10 μM, read-out: Growth inhibition percentage (GI %)
# SK-MEL-5 = test: as above; format: cell-based; details: Homo sapiens; for inhibition at 10 µM: SK-MEL-5 (melanoma), single dose 10 μM, read-out: Growth inhibition percentage (GI %)
# CCRF-CEM = test: as above; format: cell-based; details: Homo sapiens; for inhibition at 10 µM: CCRF-CEM (leukaemia), single dose 10 μM, read-out: Growth inhibition percentage (GI %)
# SF-539 = test: as above; format: cell-based; details: Homo sapiens; for inhibition at 10 µM: SF-539 (CNS cancer), single dose 10 μM, read-out: Growth inhibition percentage (GI %)
# SF-268 = test: NCI 60 antitumor screening (single dose); format: cell-based; details: Homo sapiens; SF-268 (CNS cancer), single dose 10 μM; read-out: Growth inhibition percentage (GI %)
# In short: as §1
# NCI-H322M = test: NCI 60 antitumor screening (single dose); format: cell-based; details: Homo sapiens; NCI-H322M (non-small cell lung cancer), single dose 10 μM; read-out: Growth inhibition percentage (GI %)
# In short: (§2)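 At one concentration (10 μM), compounds are run in triplicate on 60 human cancer lines per the NCI method. Treated-cell growth is recorded as G%. Reported inhibition equals 100 − G%.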
# M14 = test: NCI 60 antitumor screening (single dose); format: cell-based; details: Homo sapiens; M14 (melanoma), single dose 10 μM; read-out: Growth inhibition percentage (GI %)
# In short: as §2
# CAKI-1 = test: NCI 60 antitumor screening (single dose); format: cell-based; details: Homo sapiens; CAKI-1 (renal cancer), single dose 10 μM; read-out: Growth inhibition percentage (GI %)
# In short: as §2
# NCI-H23 = test: NCI 60 antitumor screening (single dose); format: cell-based; details: Homo sapiens; NCI-H23 (non-small cell lung cancer), single dose 10 μM; read-out: Growth inhibition percentage (GI %)
# In short: as §1
# NCI-H522 = test: NCI 60 antitumor screening (single dose); format: cell-based; details: Homo sapiens; NCI-H522 (non-small cell lung cancer), single dose 10 μM; read-out: Growth inhibition percentage (GI %)
# In short: as §1
# MCF7 = test: NCI 60 antitumor screening (single dose); format: cell-based; details: Homo sapiens; MCF7 (breast cancer), single dose 10 μM; read-out: Growth inhibition percentage (GI %)
# In short: as §2
# A549/ATCC = test: NCI 60 antitumor screening (single dose); format: cell-based; details: Homo sapiens; A549/ATCC (non-small cell lung cancer), single dose 10 μM; read-out: Growth inhibition percentage (GI %)
# In short: as §2
# HT29 = test: NCI 60 antitumor screening (single dose / five doses); format: cell-based, human; details: Homo sapiens; for inhibition at 10 µM: HT-29, HT29 (colon cancer), single dose 10 μM, read-out: Growth inhibition percentage (GI %)
# HCT-15 = test: as above; format: cell-based; details: Homo sapiens; for inhibition at 10 µM: HCT-15 (colon cancer), single dose 10 μM, read-out: Growth inhibition percentage (GI %)
# HL-60(TB) = test: as above; format: cell-based; details: Homo sapiens; for inhibition at 10 µM: HL-60(TB) (leukaemia), single dose 10 μM, read-out: Growth inhibition percentage (GI %)
# UO-31 = test: as above; format: cell-based; details: Homo sapiens; for inhibition at 10 µM: UO-31 (renal cancer), single dose 10 μM, read-out: Growth inhibition percentage (GI %)
# 786-0 = test: as above; format: cell-based; details: Homo sapiens; for inhibition at 10 µM: 786-0, 786-0 (renal cancer), single dose 10 μM, read-out: Growth inhibition percentage (GI %)
# MDA-MB-231/ATCC = test: as above; format: cell-based; details: Homo sapiens; for inhibition at 10 µM: MDA-MB-231/ATCC (breast cancer), single dose 10 μM, read-out: Growth inhibition percentage (GI %)
# MALME-3M = test: as above; format: cell-based; details: Homo sapiens; for inhibition at 10 µM: MALME-3M (melanoma), single dose 10 μM, read-out: Growth inhibition percentage (GI %)
# MDA-MB-435 = test: as above; format: cell-based; details: Homo sapiens; for inhibition at 10 µM: MDA-MB-435 (melanoma), single dose 10 μM, read-out: Growth inhibition percentage (GI %)
# BT-549 = test: as above; format: cell-based; details: Homo sapiens; for inhibition at 10 µM: BT-549 (breast cancer), single dose 10 μM, read-out: Growth inhibition percentage (GI %)
# MOLT-4 = test: as above; format: cell-based; details: Homo sapiens; for inhibition at 10 µM: MOLT-4 (leukaemia), single dose 10 μM, read-out: Growth inhibition percentage (GI %)
# RXF 393 = test: as above; format: cell-based; details: Homo sapiens; for inhibition at 10 µM: RXF 393 (renal cancer), single dose 10 μM, read-out: Growth inhibition percentage (GI %)
# RPMI-8226 = test: as above; format: cell-based; details: Homo sapiens; for inhibition at 10 µM: RPMI-8226 (leukaemia), single dose 10 μM, read-out: Growth inhibition percentage (GI %)
# UACC-62 = test: as above; format: cell-based; details: Homo sapiens; for inhibition at 10 µM: UACC-62 (melanoma), single dose 10 μM, read-out: Growth inhibition percentage (GI %)
smiles,measurement,setting,value
"Clc1cccc(/C=N/Nc2nc(N/N=C/c3cccc(Cl)c3)nc(N3CCOCC3)n2)c1 [compound 6d, 2,4-Bis[(E)-2-[(3-chlorophenyl)methylidene]hydrazin-1-yl]-6-(morpholin-4-yl)-1,3,5-triazine]",inhibition at 10 µM,A498,95.7%
same,GI50,"A498; A498, five doses (0.01–100 μM), read-out: GI50",1670 nM
same,Mean GI %,[1],53.70% and 53.69%
same,inhibition at 10 µM,SNB-75,-2.64%
same,GI50,"SNB-75; SNB-75, five doses (0.01–100 μM), read-out: GI50",3330 nM
same,GI50,"SW-620; SW-620, SW-620, five doses (0.01–100 μM), read-out: GI50",1780 nM
same,inhibition at 10 µM,SW-620,81.9%
same,inhibition at 10 µM,SK-MEL-5,55.9%
same,GI50,"SK-MEL-5; SK-MEL-5, five doses (0.01–100 μM), read-out: GI50",1720 nM
same,inhibition at 10 µM,CCRF-CEM,75.2%
same,GI50,"CCRF-CEM; CCRF-CEM, five doses (0.01–100 μM), read-out: GI50",1340 nM
same,inhibition at 10 µM,SF-539,56.4%
same,GI50,"SF-539; SF-539, five doses (0.01–100 μM), read-out: GI50",5390 nM
same,inhibition at 10 µM,SF-268,34.1%
same,inhibition at 10 µM,NCI-H322M,46.2%
same,inhibition at 10 µM,M14,64.8%
same,inhibition at 10 µM,CAKI-1,62.4%
same,inhibition at 10 µM,NCI-H23,29.4%
same,inhibition at 10 µM,NCI-H522,86.1%
same,inhibition at 10 µM,MCF7,57%
same,inhibition at 10 µM,A549/ATCC,53.4%
same,GI50,"HT29; HT-29, HT29, five doses (0.01–100 μM), read-out: GI50",1340 nM
same,inhibition at 10 µM,HT29,91.8%
same,inhibition at 10 µM,HCT-15,111%
same,GI50,"HCT-15; HCT-15, five doses (0.01–100 μM), read-out: GI50",910 nM
same,inhibition at 10 µM,HL-60(TB),110%
same,GI50,"HL-60(TB); HL-60(TB), five doses (0.01–100 μM), read-out: GI50",500 nM
same,inhibition at 10 µM,UO-31,73.2%
same,GI50,"UO-31; UO-31, five doses (0.01–100 μM), read-out: GI50",1610 nM
same,inhibition at 10 µM,786-0,69.4%
same,GI50,"786-0; 786-0, five doses (0.01–100 μM), read-out: GI50",1070 nM
same,GI50,"MDA-MB-231/ATCC; MDA-MB-231/ ATCC, five doses (0.01–100 μM), read-out: GI50",9160 nM
same,inhibition at 10 µM,MDA-MB-231/ATCC,28.7%
same,inhibition at 10 µM,MALME-3M,144%
same,GI50,"MALME-3M; MALME-3M, five doses (0.01–100 μM), read-out: GI50",2860 nM
same,inhibition at 10 µM,MDA-MB-435,50.7%
same,GI50,"MDA-MB-435; MDA-MB-435, five doses (0.01–100 μM), read-out: GI50",4240 nM
same,inhibition at 10 µM,BT-549,7.26%
same,GI50,"BT-549; BT-549, five doses (0.01–100 μM), read-out: GI50",3220 nM
same,inhibition at 10 µM,MOLT-4,94%
same,GI50,"MOLT-4; MOLT-4, five doses (0.01–100 μM), read-out: GI50",1490 nM
same,inhibition at 10 µM,RXF 393,82.5%
same,GI50,"RXF 393; RXF 393, five doses (0.01–100 μM), read-out: GI50",1000 nM
same,inhibition at 10 µM,RPMI-8226,61.2%
same,GI50,"RPMI-8226; RPMI-8226, five doses (0.01–100 μM), read-out: GI50",1900 nM
same,inhibition at 10 µM,UACC-62,8.33%
same,GI50,"UACC-62; UACC-62, five doses (0.01–100 μM), read-out: GI50",4540 nM
"Fc1cccc(/C=N/Nc2nc(N/N=C/c3cccc(F)c3)nc(N3CCOCC3)n2)c1 [compound 6e, 2,4-Bis[(E)-2-[(3-Fluorophenyl)methylidene]hydrazin-1-yl]-6-(morpholin-4-yl)-1,3,5-triazine]",inhibition at 10 µM,A498,52%
same,Mean GI %,[1],15.60%
same,inhibition at 10 µM,SNB-75,18.3%
same,inhibition at 10 µM,SW-620,34%
same,inhibition at 10 µM,SK-MEL-5,27.9%
same,inhibition at 10 µM,CCRF-CEM,32.8%
same,inhibition at 10 µM,SF-539,12.6%
same,inhibition at 10 µM,SF-268,4.91%
same,inhibition at 10 µM,NCI-H322M,3.82%
same,inhibition at 10 µM,M14,100%
same,inhibition at 10 µM,CAKI-1,11.3%
same,inhibition at 10 µM,NCI-H23,-1.55%
same,inhibition at 10 µM,NCI-H522,4.23%
same,inhibition at 10 µM,MCF7,19.3%
same,inhibition at 10 µM,A549/ATCC,6.5%
same,inhibition at 10 µM,HT29,53.5%
same,inhibition at 10 µM,HCT-15,52.5%
same,inhibition at 10 µM,HL-60(TB),50.9%
same,inhibition at 10 µM,UO-31,30.3%
same,inhibition at 10 µM,786-0,54%
same,inhibition at 10 µM,MDA-MB-231/ATCC,3.49%
same,inhibition at 10 µM,MALME-3M,-44%
same,inhibition at 10 µM,MDA-MB-435,1.89%
same,inhibition at 10 µM,BT-549,11.6%
same,inhibition at 10 µM,MOLT-4,33.9%
same,inhibition at 10 µM,RXF 393,79.3%
same,inhibition at 10 µM,RPMI-8226,33%
same,inhibition at 10 µM,UACC-62,-5.24%
